PubChem BioAssay (NCI)
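A five-concentration, 48-hour dose response in 96-well plates underlies each endpoint, interpolated linearly between surrounding concentrations. The concentration for full growth arrest is given as TGI.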

Columns and labels:
Experiment in all cases: NCI anticancer screen, dose series, 48 h
[1] = system: OVCAR-4 ovarian
[2] = system: SF-295 CNS
[3] = system: CCRF-CEM leukemia
[4] = system: K-562 leukemia
[5] = system: EKVX NSCLC
[6] = system: A498 renal
[7] = system: RXF 393 renal
[8] = system: HCT-15 colon
[9] = system: TK-10 renal
[10] = system: SK-MEL-5 melanoma
[11] = system: SF-539 CNS
[12] = system: HCC-2998 colon
[13] = system: HT29 colon
[14] = system: LOX IMVI melanoma
[15] = system: KM20L2 colon
[16] = system: ACHN renal
[17] = system: SNB-75 CNS
[18] = system: MALME-3M melanoma
[19] = system: KM12 colon
[20] = system: IGROV1 ovarian
[21] = system: OVCAR-5 ovarian
[22] = system: SW-620 colon
[23] = system: SN12C renal
[24] = system: M19-MEL melanoma
[25] = system: OVCAR-3 ovarian
[26] = system: XF 498 CNS
[27] = system: SK-OV-3 ovarian
[28] = system: SF-268 CNS
[29] = system: MOLT-4 leukemia
[30] = system: HOP-18 NSCLC
[31] = system: SK-MEL-28 melanoma
[32] = system: HL-60(TB) leukemia
[33] = system: HCT-116 colon
[34] = system: DMS 273 small cell lung
[35] = system: SR leukemia
[36] = system: RPMI-8226 leukemia
[37] = system: U251 CNS
[38] = system: CAKI-1 renal
[39] = system: UACC-257 melanoma
[40] = system: UACC-62 melanoma
[41] = system: HOP-62 NSCLC
[42] = system: NCI-H460 lung
[43] = system: SNB-19 CNS
[44] = system: OVCAR-8 ovarian
[45] = system: M14 melanoma
[46] = system: RXF-631 renal
[47] = system: SK-MEL-2 melanoma
[48] = system: NCI-H522 lung
[49] = system: NCI-H23 lung
[50] = system: SNB-78 CNS
[51] = system: 786-0 renal
[52] = system: DLD-1 colon
[53] = system: UO-31 renal
[54] = system: LXFL 529 NSCLC
[55] = system: A549 NSCLC
[56] = system: NCI-H226 lung
[57] = system: COLO 205 colon
[58] = system: DMS 114 small cell lung
[59] = system: HOP-92 NSCLC

Measured: TGI

COC(=O)C(C(=O)C(=O)Nc1nc(=S)[nH][nH]1)c1csc(N)n1 (configuration not stated)
not listed: [58] | [59]
> 100 µM: all other assays above

COc1cc(C2C(C(=O)O)=C(CO)Oc3cc4c(cc32)OCO4)cc(OC)c1OC (configuration not stated)
not listed: [6] | [11] | [12] | [18] | [19] | [25] | [28] | [35] | [41] | [47] | [48] | [51] | [54] | [56]
> 100 µM: all other assays above
